Read-outs that look alike come from different tables or passages of the source.
How the values were obtained:
muscle-type AChR = details: cited from earlier work; for blocking rate constant k+B / unblocking rate constant k–B: ref Table S1 refs 1-12
[1] = biological target: T1, adult mouse muscle AChR (α, β, δ, ε) (Mus musculus, UniProt P02716+P04756+P09690+P20782, V433A); test: Single-channel patch-clamp analysis of open-channel blockade of AChRs expressed in HEK-293 cells; assay type: cell-based; details: for effect on apparent mean open time (τapp): 100 µM ACh with 5, 10 or 20 µM PEG-QA; for unblocking rate constant k–B / blocking rate constant k+B: cell-attached; for unblocking rate constant k–B: average of unblocking rates at all tested concentrations; for blocking rate constant k+B: slope of linear fit of blocking rates
T1 construct: expressed in transfected cells; host or cells: HEK-293 cells (ATCC CRL-1573), transient calcium phosphate transfection, α:β:δ:ε = 2:1:1:1
Procedure: The cDNA clones of adult mouse muscle AChR subunits (α, β, δ, ε) in the vector pRBG4 were generously provided by Professor Anthony Auerbach (University at Buffalo, NY). […] Human embryonic kidney cells (HEK-293 cells, ATCC CRL-1573) were transiently transfected by calcium phosphate precipitation. In brief, HEK-293 cells were maintained in Dulbecco's […] (Invitrogen) supplemented with 10% Fetal Bovine Serum (Invitrogen) at 37°C and 5% CO2. Cells were plated 24 h before transfection to reach a confluence of 40–60%. A total of 3.5 µg DNA per 35-mm culture dish (α:β:δ:ε = 2∶1∶1∶1) was used. […] The medium was changed 24 h after the addition of DNA, and patch-clamp recordings were carried out 20–36 h thereafter.
Single-channel currents from AChRs were recorded using patch-clamp techniques in the cell-attached configuration. For dose-dependence measurements, a holding potential of +70 mV was applied. Kinetic analysis of single-channel currents was carried out using the QuB suite, [12]. The currents were idealized using the segmented k-means (SKM) hidden Markov algorithm at full bandwidth (10 kHz). Kinetic modeling of the idealized intervals was performed using the maximum interval likelihood (MIL) method, [12]. Additional details of recording and data analysis are provided in File S1.
MIL analysis on 2–4 cells was performed to determine the apparent mean open time (τapp), blocking rate, and unblocking rate for each measuring condition (reported as mean ± SEM). Uncertainties in the blocking rate constant (k+B values in Figure 2F) are reported as the standard errors in the least squares fits.
To test this hypothesis, we characterized the blockade kinetics of a series of PEG-QA conjugates (PQ1–PQ5; Figure 1) using patch-clamp electrophysiology. These conjugates were prepared from a short PEG, octa (ethylene glycol), through a three-step conversion (File S1). The chosen QA groups are small relative to the backbone length, and the hydrodynamic radii of these compounds are therefore expected to be similar. The kinetics and microscopic equilibrium affinity of channel blockade were determined by analyzing the acetylcholine (ACh)-elicited currents at the single-channel level. Channel activities were measured at 100 µM ACh in the absence or presence of 5, 10, or 20 µM of PEG-QA. […] The brief gaps within the clusters represent channel closing events.
Typical open-channel blockers follow a sequential blockade mechanism: the channel opens in response to ACh binding, and the blocker reversibly binds and dissociates from the transmembrane pore before the channel closes (Figure 1 and File S1). […] A new population of non-conducting blockade events, in addition to the brief closing and the long desensitized dwells, is also observed. These blockade events manifest themselves as a new component in the closed-time histogram. The relative area of the blockade component increases with increasing blocker concentration (reflecting the concentration-dependent rate of pore blockade), while the lifetime of this component (τB) is independent of blocker concentration (reflecting the unimolecular nature of blocker dissociation). These kinetic features allow the blocking and unblocking rate constants (k+B and k–B, respectively) to be determined by fitting of the dwell times under each set of conditions (File S1). […]
were amplified (Axopatch 200B, Axon Instruments, Foster City, CA), low-pass filtered at 10 kHz, and digitized at 20 kHz (NI 6040 E Data Acquisition Board, National Instruments, Austin, TX). Data were recorded directly to a desktop PC hard drive using the QuB software (www.qub.buffalo.edu).
1.3. Analysis of single-channel data (see also: Figure S1)
Kinetic analysis of single-channel currents was carried out using the QuB suite. The currents were idealized using the segmented k-means (SKM) hidden Markov algorithm at full bandwidth (10 kHz). Kinetic modeling of the idealized intervals […]

[2] = biological target: T1, adult mouse muscle AChR (α, β, δ, ε); test: Agonist potency of PEG-QA alone, single-channel recording; assay type: cell-based; details: 10 µM in the pipette solution without other agonists, +70 mV
Source text: Various QA compounds, including the prototype PEG-QA (PQ0), have been previously reported as agonists for the muscle-type AChR [8], [19], [26]–[28]. […] The agonist potencies of PEG-QAs correlate roughly inversely with the size of their QA groups (except PQ4; Figure S4). […] The low agonist potencies of PQ3 and PQ5 may be attributable to their bulky QA groups, which may cause reduced affinities for the agonist-binding pocket and/or interfere with receptor conformational changes required for channel gating. Open-channel blockers with low agonist potencies may be favorable in some applications, since their pharmacological effects are simpler and more predictable.
Supplementary file pone.0112088.s004.tif: Figure S4 The agonist potencies of PQ1–5. (A) Representative traces of single-channel recordings in the presence of individual PEG-QA (10 µM in the pipette solution without other agonists). Pipette potential was held at +70 mV, and the currents are shown as upward deflections. (B) The effect of QA structure on the open probability of the AChR (defined as [drawing 1] , where N max is the maximal number of simultaneously open channels and Po,i is the fraction of time in which i channels open simultaneously). Data are plotted in log-scale in order to present the low NPo values of PQ3 and PQ5. (C) The effect of QA structure on the mean open time of the AChR. […]

[3] = previously reported open-channel blockers
[4] = previously reported open-channel blockers, ref Table S1 refs 1-14, read-out: Kd (= k–B/k+B)
[5] = 100 µM ACh, +70 mV, predominant blockade mode
[6] = predominant blockade mode, 100 µM ACh, +70 mV, read-out: Kd (= k–B/k+B) for the open AChR pore
[7] = 20 µM blocker, held at +50, +70, +100, +130 mV

T1 sequence (P04756 21-457 V433A): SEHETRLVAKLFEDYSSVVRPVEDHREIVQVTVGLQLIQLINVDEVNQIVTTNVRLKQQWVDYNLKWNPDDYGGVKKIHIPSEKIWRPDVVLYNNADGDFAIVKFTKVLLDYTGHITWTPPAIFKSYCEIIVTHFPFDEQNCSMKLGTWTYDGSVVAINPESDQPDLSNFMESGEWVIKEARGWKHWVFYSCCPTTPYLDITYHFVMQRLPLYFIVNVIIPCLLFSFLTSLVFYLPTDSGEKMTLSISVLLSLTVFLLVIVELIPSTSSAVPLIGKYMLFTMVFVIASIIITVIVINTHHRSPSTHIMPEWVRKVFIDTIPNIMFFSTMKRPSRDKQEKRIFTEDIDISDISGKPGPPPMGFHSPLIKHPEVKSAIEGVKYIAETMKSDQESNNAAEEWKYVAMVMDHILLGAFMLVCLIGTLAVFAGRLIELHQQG
T1 sequence (P09690 24-501): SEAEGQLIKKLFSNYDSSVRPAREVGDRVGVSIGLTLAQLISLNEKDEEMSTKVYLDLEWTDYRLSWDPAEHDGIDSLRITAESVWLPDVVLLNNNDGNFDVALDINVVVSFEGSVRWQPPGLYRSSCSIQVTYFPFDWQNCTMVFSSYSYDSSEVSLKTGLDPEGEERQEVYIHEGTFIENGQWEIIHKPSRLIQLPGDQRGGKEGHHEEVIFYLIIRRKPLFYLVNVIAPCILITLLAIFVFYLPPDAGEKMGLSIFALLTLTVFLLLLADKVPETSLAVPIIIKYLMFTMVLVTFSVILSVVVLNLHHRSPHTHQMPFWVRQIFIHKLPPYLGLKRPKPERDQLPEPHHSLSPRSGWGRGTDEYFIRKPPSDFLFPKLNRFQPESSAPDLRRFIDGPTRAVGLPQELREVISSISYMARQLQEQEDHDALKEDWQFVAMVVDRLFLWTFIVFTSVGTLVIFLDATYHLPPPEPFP
T1 sequence (P02716 25-520): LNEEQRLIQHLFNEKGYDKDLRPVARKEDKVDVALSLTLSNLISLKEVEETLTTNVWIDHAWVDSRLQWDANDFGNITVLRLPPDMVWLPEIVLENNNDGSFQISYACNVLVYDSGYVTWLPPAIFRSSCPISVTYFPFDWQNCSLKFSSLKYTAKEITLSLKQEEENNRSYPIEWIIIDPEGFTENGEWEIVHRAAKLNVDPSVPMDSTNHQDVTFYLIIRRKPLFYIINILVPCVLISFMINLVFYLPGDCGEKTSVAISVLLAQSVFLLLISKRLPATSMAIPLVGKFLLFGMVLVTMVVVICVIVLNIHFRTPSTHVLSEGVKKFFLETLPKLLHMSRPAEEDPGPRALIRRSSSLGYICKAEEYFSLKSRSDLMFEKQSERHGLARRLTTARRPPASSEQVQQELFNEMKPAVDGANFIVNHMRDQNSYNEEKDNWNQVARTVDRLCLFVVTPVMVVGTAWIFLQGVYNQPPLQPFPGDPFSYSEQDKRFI
T1 sequence (P20782 21-493): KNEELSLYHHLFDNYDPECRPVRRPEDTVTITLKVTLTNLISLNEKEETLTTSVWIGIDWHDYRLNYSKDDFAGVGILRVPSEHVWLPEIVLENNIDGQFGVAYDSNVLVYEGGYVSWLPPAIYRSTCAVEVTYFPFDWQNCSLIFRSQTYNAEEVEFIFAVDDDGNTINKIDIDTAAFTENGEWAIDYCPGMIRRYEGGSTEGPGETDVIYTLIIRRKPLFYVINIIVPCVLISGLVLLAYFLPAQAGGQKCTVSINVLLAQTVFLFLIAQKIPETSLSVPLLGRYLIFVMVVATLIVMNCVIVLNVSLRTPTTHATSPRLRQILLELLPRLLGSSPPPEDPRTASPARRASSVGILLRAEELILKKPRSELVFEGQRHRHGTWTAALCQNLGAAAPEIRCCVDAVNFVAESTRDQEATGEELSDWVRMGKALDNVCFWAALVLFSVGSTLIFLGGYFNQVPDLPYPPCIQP

| SMILES | blocking rate constant k+B (muscle-type AChR; [3]) [M⁻¹ s⁻¹] | unblocking rate constant k–B (muscle-type AChR; [3]) | Kd (muscle-type AChR; [4]) [µM] | further results |
| --- | --- | --- | --- | --- |
| COc1cc2c3cc1Oc1cc(ccc1O)C[C@@H]1c4c(cc(OC)c(O)c4Oc4ccc(cc4)C[C@@H]3N(C)CC2)CC[N+]1(C)C [(+)-tubocurarine] | 3e+06 | 0.8 s⁻¹ | 0.27 | – |
| Br.C[N+](C)(C)CCCCCNCC12CC3CC(CC(C3)C1)C2.[Br-] [IEM-1460] | 7.2e+07 | 858 s⁻¹ | 12 | – |
| C[C@]12N[C@H](Cc3ccccc31)c1ccccc12 [MK-801] | 2e+07 | 48 s⁻¹ | 2.4 | – |
| C[N+](C)(C)CCOCCOCCOCCOCCOCCOCCOCC[N+](C)(C)C [PQ0] | – | – | – | Kd (muscle-type AChR; prototype PEG-trimethylammonium blockers, read-out: Kd for the AChR pore): 9 ± 2 µM |
| C[N+]1(CCOCCOCCOCCOCCOCCOCCOCC[N+]2(C)CCCC2)CCCC1 [PQ1] | – | – | – | effect on apparent mean open time (τapp) ([1]; +70 mV): dose-dependent decrease; unblocking rate constant k–B [1, 5]: 64 ± 14 s⁻¹; blocking rate constant k+B [1, 5]: 2e+07 ± 4e+06 M⁻¹ s⁻¹; predominant blockade mode ([1]; faster- vs slower-dissociation mode): faster-dissociation mode; Kd [1, 6]: 3 ± 1 µM |
| C[N+]1(CCOCCOCCOCCOCCOCCOCCOCC[N+]2(C)CCCCC2)CCCCC1 [PQ2] | – | – | – | Kd [1]: 0.08 ± 0.09 µM; effect on apparent mean open time (τapp) ([1]; +70 mV): dose-dependent decrease; unblocking rate constant k–B [1, 5]: 2 ± 2 s⁻¹; blocking rate constant k+B [1, 5]: 2.9e+07 ± 7e+06 M⁻¹ s⁻¹ |
| CC[N+]1(CCOCCOCCOCCOCCOCCOCCOCC[N+]2(CC)CCCCC2)CCCCC1 [PQ3] | – | – | – | agonist potency (channel open probability and opening duration with compound alone) [2]: poor agonists; effect on apparent mean open time (τapp) ([1]; +70 mV): dose-dependent decrease; unblocking rate constant k–B [1, 5]: 4 ± 2 s⁻¹; blocking rate constant k+B [1, 5]: 2.2e+07 ± 6e+06 M⁻¹ s⁻¹; Kd [1, 6]: 0.17 ± 0.12 µM |
| CC[N+](CC)(CC)CCOCCOCCOCCOCCOCCOCCOCC[N+](CC)(CC)CC [PQ4] | – | – | – | effect on apparent mean open time (τapp) ([1]; +70 mV): dose-dependent decrease; unblocking rate constant k–B [1, 5]: 4 ± 3 s⁻¹; blocking rate constant k+B [1, 5]: 2.2e+07 M⁻¹ s⁻¹; Kd [1, 6]: 0.19 ± 0.15 µM |
| CCC[N+](C)(CCC)CCOCCOCCOCCOCCOCCOCCOCC[N+](C)(CCC)CCC [PQ5] | – | – | – | agonist potency (channel open probability and opening duration with compound alone) [2]: poor agonists; voltage dependence of k+B [1, 7]: increases with membrane hyperpolarization; voltage dependence of τapp [1, 7]: decreases with hyperpolarizing; effect on apparent mean open time (τapp) ([1]; +70 mV): dose-dependent decrease; unblocking rate constant k–B [1, 5]: 2 ± 1 s⁻¹; blocking rate constant k+B [1, 5]: 1.5e+07 ± 1e+06 M⁻¹ s⁻¹; Kd [1, 6]: 0.12 ± 0.09 µM |
| Cc1cccc(C)c1NC(=O)C[N+](C)(C)C [QX-222] | 2.1e+07 | ~ 600 s^−1 | ~30 | – |
| CC[N+](CC)(CC)CC(=O)Nc1c(C)cccc1C [QX-314] | 1.9e+07 | ~ 30 s^−1 | ~1 | – |
| CC(=O)OCC[N+](C)(C)C [acetylcholine] | 3.7e+07 | 56000 s⁻¹ | 1200 | – |
| CC(C)(C)NCC(O)c1ccc(O)c(CO)c1 (stereo not shown) [albuterol] | 4.3e+07 | 1042 s⁻¹ | 24 | – |
| C[N+](C)(C)CCO [choline] | – | – | 12500 | – |
| CNC1(c2ccccc2Cl)CCCCC1=O (stereo not shown) [ketamine] | 3e+06 | 100 s⁻¹ | 33 | – |
| Nc1nnc(-c2cccc(Cl)c2Cl)c(N)n1 [lamotrigine] | 6.2e+06 | 575 s⁻¹ | 93 | – |
| CNC(=O)Oc1ccc2c(c1)[C@]1(C)CCN(C)[C@@H]1N2C [physostigmine] | 2e+07 | 450 s⁻¹ | 23 | – |
| CCN(CC)CCOC(=O)c1ccc(N)cc1 [procaine] | 2e+06 | 200 s⁻¹ | 100 | – |
| CN1CCCN=C1/C=C/c1cccs1 [pyrantel] | 8e+07 | 667 s⁻¹ | 8 | – |
| CC[N+](CC)(CC)CC [tetraethylammonium] | – | – | – | Kd (muscle-type AChR; read-out: Kd (= k–B/k+B)): 2700 µM |

— PMC4227698, “Poly(Ethylene Glycol) as a Scaffold for High-Affinity Open-Channel Blockers of the Mouse Nicotinic Acetylcholine Receptor” (PLoS ONE, 2014)
